Data published in US10526580B2, “Differentiated cell population of endothelial cells derived from human pluripotent stem cells, composition, system, kit and uses thereof” (BIOCANT-ASSOCIAÇÃO DE TRANSFERÊNCIA DE TECNOLOGIA, priority 2012, dated 2020).
Where a name gives a salt, the structure may show the parent alone.

Test system: hESC-derived ECs versus ACL cells
Assay: High-throughput screening of LOPAC library, PrestoBlue cell viability, hESC-derived ECs versus ACL cells
Type: cell-based, human
Settings: LOPAC screen, 4.5 μM, 4 days of incubation, PrestoBlue assay
Protocol: High-throughput screening (HTS). HUAECS (Lonza) and hESC-derived ECs were cultured in EGM-2 medium while human anterior cruciate ligament cells (ACL cells) were cultured in Dulbecco's modified Eagle's medium (DMEM; PAA) supplemented with 10% FBS, 0.2 mM ascorbic acid 2-phosphate magnesium salt (Sigma Aldrich), […] streptomycin and 100 U/mL penicillin (Life Technologies). ACL cells were isolated from patients that have signed an informed consent form, in compliance with the Dutch legislation. The ethical committee of Medisch Spectrum Twente Hospital approved the collection.
The LOPAC library (Sigma-Aldrich) was used to screen embryonic endothelial-specific cytotoxic compounds. The compounds were solubilized in DMSO. The final compound concentration used in the screen was 4.5 μM in a final volume of 200 μL per well (96-well plate). HUAECs, hESC-derived EC and ACL cells were seeded at 16,000 cells/well (HUAECs and hESC-derived ECs) and 5,000 cells/well (ACL cells) and allowed to reach near confluence (approximately two days). After two days, medium was exchanged and test compounds and controls were added to the 96-well plates (all wells contained 0.25% (v/v) DMSO). After 4 days of incubation, cell viability was assessed using a PrestoBlue (Invitrogen) assay. This assay is based on a resazurin-based solution that indicates the reducing power of living cells and therefore measures indirectly their number. For each measurement, cell medium was removed and the PrestoBlue solution (10%) was added for 3 h at 37° C. upon which the absorbance was measured at 560-590 nm.
Disruption of vascular development has been directly correlated with prenatal loss, malformations and neurodevelopmental problems^41-44. […] The library was screened at a single dosage of 4.5 μM in a volume of 200 μL per well of EGM-2 medium, containing 0.25% DMSO (v/v). […] Six compounds (danazol, chlorpromazine hydrochloride, ellipticine, 3′,4′-dichlorobenzamil, fluphenazine dihydrochloride and 7-cyclopentyl-5-(4-phenoxy)phenyl-7H-pyrrolo[2,3-d]pyrimidin-4-ylamine) affected cell viability in both cells by a difference of 20% (FIG. 4B). The six compounds belong to different classes: cell cycle, ion pumps, dopamine pathway, phosphorylation and hormone signaling. The compounds selected from the primary screen were then tested against hESC-derived ECs and HUAECs at eight different concentrations to obtain a dose-response curve (FIG. 4C and FIG. 14).

| Compound | Differences (%) in cell viability (hESC-Derived ECs versus ACL cells) |
| --- | --- |
| CC/C(=C(\c1ccccc1)c1ccc(OCCN(C)C)cc1)c1ccccc1 [Tamoxifen citrate] | 98.3% |
| O=S1(=O)N(CCN2CC=C(c3c[nH]c4cc(F)ccc34)CC2)c2cccc3c2N1CCC3 [LY-367,265] | 51.1% |
| Vinblastine sulfate salt | 92.8% |
| C[C@@H]1O[C@@H](O[C@H]2C[C@@H](O)[C@]3(CO)[C@H]4[C@H](O)C[C@]5(C)[C@@H](C6=CC(=O)OC6)CC[C@]5(O)[C@@H]4CC[C@]3(O)C2)[C@H](O)[C@H](O)[C@H]1O [Ouabain] | 94.6% |
| Cc1cc(N)c2ccccc2[n+]1CCCCCCCCCCCCCC[n+]1c(C)cc(N)c2ccccc21 [Dequalinium analog, C-14 linker] | 96.6% |
| CCC(=O)c1ccc2c(c1)N(CCCN(C)C)c1ccccc1S2 [Propionylpromazine hydrochloride] | 50.3% |
| COCC(=O)O[C@]1(CCN(C)CCCc2nc3ccccc3[nH]2)CCc2cc(F)ccc2[C@@H]1C(C)C [Mibefradil dihydrochloride] | 62.2% |
| COc1cc2c(cc1C(F)(F)F)N(C(=O)Nc1cc(F)cc(-c3cccnc3)c1)CC2 [SB 228357] | 62.7% |
| C[C@@H]1O[C@@H](O[C@H]2C[C@@H](O)[C@]3(CO)[C@H]4[C@H](O)C[C@]5(C)[C@@H]([C@@H]6COC(=O)C6)CC[C@]5(O)[C@@H]4CC[C@]3(O)C2)[C@H](O)[C@H](O)[C@H]1O [Dihydroouabain] | 97.0% |
| CC[C@@]1(O)C(=O)OCc2c1cc1n(c2=O)Cc2cc3ccccc3nc2-1 [(S)-(+)-Camptothecin] | 96.3% |
| CC(C)[C@H]1c2ccc(F)cc2CC[C@@]1(CCN(C)CCCc1nc2ccccc2[nH]1)OC(=O)C1CC1 [NNC 55-0396] | 98.4% |
| Cc1nc(-c2ccc(-c3ccc(C(=O)N4CCc5cc6c(cc54)C4(CCN(C)CC4)CO6)cc3)c(C)c2)no1 [SB 224289 hydrochloride] | 96.7% |
| CC(Oc1ccc(Oc2cnc3ccc(Cl)cc3n2)cc1)C(=O)O (stereo not shown) [XK469] | 75.9% |
| CCOC(=O)C1=C(C)NC(C)=C(C(=O)OC)C1c1cccc(Cl)c1Cl (stereo not shown) [Felodipine] | 58.1% |
| Cn1c(=O)c2[nH]c(-c3ccccc3)nc2n(C)c1=O [1,3-Dimethyl-8-phenylxanthine] | 68.8% |
| CCN(CC)C(C)C(=O)N1c2ccccc2Sc2ccccc21.Cl (stereo not drawn) [10-(alpha-Diethylaminopropionyl)-phenothiazine hydrochloride] | 56.8% |
| [N-]=[N+]=Nc1ccc(C(=O)CSC[C@H](NC(=O)CC[C@H](N)C(=O)O)C(=O)NCC(=O)O)cc1 [S-(p-Azidophenacyl)glutathione] | 61.3% |
| CC[C@]1(O)C[C@H]2CN(CCc3c([nH]c4ccccc34)[C@@](C(=O)OC)(c3cc4c(cc3OC)N(C=O)[C@H]3[C@@](O)(C(=O)OC)[C@H](OC(C)=O)[C@]5(CC)C=CCN6CC[C@]43[C@@H]65)C2)C1 [Vincristine sulfate] | 89.2% |
| C[C@H]1O[C@@H](n2cc(F)c(=O)[nH]c2=O)[C@H](O)[C@@H]1O [5-fluoro-5′-deoxyuridine] | 60.8% |
| Cc1nc2n(c(=O)c1CCN1CCC(c3noc4cc(F)ccc34)CC1)CCCC2 [Risperidone] | 56.9% |
| O=C1Nc2ccccc2/C1=C1/Nc2ccccc2/C1=N\O [Indirubin-3′-oxime] | 85.5% |
| CN1CCN(CCCN2c3ccccc3Sc3ccc(C(F)(F)F)cc32)CC1 [Trifluoperazine dihydrochloride] | 54.0% |
| Cl.Cl.OCCN1CCN(CC/C=C2/c3ccccc3Sc3ccc(C(F)(F)F)cc32)CC1 [cis-(Z)-Flupenthixol dihydrochloride] | 69.6% |
| C[C@H]1CCC/C=C/[C@@H]2C[C@H](O)C[C@H]2[C@H](O)/C=C/C(=O)O1 [Brefeldin A] | 95.5% |
| CC[C@H](C)C(=O)O[C@H]1CCC=C2C=C[C@H](C)[C@H](CC[C@@H]3C[C@@H](O)CC(=O)O3)[C@H]21 [Mevastatin] | 98.0% |
